Results published in US20250034136A1 (Nimbus Wadjet, Inc., priority 2023, published 2025).

Tested on: p21 induction in HCT116 cells
Experiment: p21 induction in HCT116 cells
Type: cell-based
Conditions: Homo sapiens, HCT-116, 24 h, HCT116 cells, 24 h compound incubation; read-out: P21_EC50
Protocol: The colon carcinoma cell line HCT116 was obtained from ATCC and cultured in growth medium consisting of Mccoy's 5A Medium (Gibco 16600108) supplemented with 10% FBS (Transgene FS201-02) and 100 units/mL penicillin-streptomycin (Gibco 15140122) and maintained at 37° C. under 5% CO2. On the day of seeding, 2,000 cells in 30 μL of culture media were plated per well to Poly-D-Lysine 384 Well Black Clear Plates (Biocoat 356663) and incubated overnight at 37° C. under 5% CO2. The following day, compounds were serially diluted in DMSO for a total of 11 test concentrations. […] Next, 150 nL of diluted compound was added in duplicate to the assay plate, using an Echo 655 (Labcyte). The plate was centrifuged at 500 RPM for 1 min and then incubated at 37° C. under 5% CO2 for 24 h. After 24 h, medium was removed, and cells were fixed by adding 40 μL of 4% paraformaldehyde solution to each well and incubated for 20 min at room temperature. The plate was then washed 4 times with 100 μL per well of wash buffer (PBS with 0.1% Tween-20) using a microplate washer. Next, 30 μL of ice-cold methanol was added to each well and the plate was incubated at −20° C. for 10 min. The plate was washed 4 times with 100 μL per well of wash buffer by a microplate washer, then 30 μL per well of blocking buffer (Intercept PBS blocking buffer (LI-COR 927-70001) with 0.05% Tween-20) was added and the plate was incubated at room temperature with shaking for 2 h. Next, to each test well, 20 μL of primary antibody solution (p21 Waf1/CIP (12D1) RabbitmAb (Cell Signaling Technologies 2947) diluted 1:1000 and GAPDH (D4C6R) Mouse mAb (Cell Signaling Technologies 97166) diluted 1:2000 in blocking buffer) was added and the plate was placed at 4° C., overnight. The following day, the plate was washed 5 times with 100 μL per well of wash buffer using a microplate washer for 5 min. 20 μL per well of secondary antibody (IRDye 680CW Goat anti-Mouse IgG (H+L) (LI-COR 926-68070) diluted 1: 2000 in Blocking Buffer and IRDye 800CW Goat anti-Rabbit IgG (H+L) (LI-COR 926-32211) diluted 1: 2000 in Blocking Buffer) was then added and the plate was stored for 2 h in the dark at room temperature with shaking. The plate was then washed 4 times with 100 μL per well of wash buffer again using a microplate washer. Finally, the p21 signal and the GAPDH signal were quantified using a LI-COR Odyssey CLx Imager machine reading at 800 nm and 700 nm, respectively. Each plate contained DMSO control (low control) and an internal reference WRN inhibitor (high control) respectively. […] EC50 values for each compound were generated after non-linear regression curve fitting using commercially available software.

Q: For `CCc1c(N2CCN(C(=O)c3ncnc(C)c3O)C3CCC32)c(=O)c2nc(N(C)C)cnc2n1CC(=O)Nc1ccc(C(F)(F)F)cc1Cl` (racemic) [I-34, rac-N-(2-chloro-4-(trifluoromethyl)phenyl)-2-(2-(dimethylamino)-6-ethyl-7-(5-(5-hydroxy-6-methylpyrimidine-4-carbonyl)-2,5-diazabicyclo[4.2.0]octan-2-yl)-8-oxopyrido[2,3-b]pyrazin-5(8H)-yl)acetamide], which EC50 is on record?
A: < 500 nM

Q: How did the EC50 turn out when `CCc1c(N2CCN(C(=O)c3ncnc(C)c3O)[C@H]3CC[C@H]32)c(=O)c2nc(N(C)C)cnc2n1CC(=O)Nc1ccc(C(F)(F)F)cc1Cl` (racemic) [I-106, rac-N-(2-chloro-4-(trifluoromethyl)phenyl)-2-(2-(dimethylamino)-6-ethyl-7-(5-(5-hydroxy-6-methylpyrimidine-4-carbonyl)-2,5-diazabicyclo[4.2.0]octan-2-yl)-8-oxopyrido[2,3-b]pyrazin-5(8H)-yl)acetamide] was run?
A: 500 to 2000 nM

Q: Which EC50 does the source give for `CCc1c(N2CCN(C(=O)c3ncnc(C)c3O)[C@@H]3CC[C@H]32)c(=O)c2nc(N(C)C)cnc2n1CC(=O)Nc1ccc(C(F)(F)F)cc1Cl` (single isomer, unassigned) [I-39, N-(2-chloro-4-(trifluoromethyl)phenyl)-2-(2-(dimethylamino)-6-ethyl-7-(−5-(5-hydroxy-6-methylpyrimidine-4-carbonyl)-2,5-diazabicyclo[4.2.0]octan-2-yl)-8-oxopyrido[2,3-b]pyrazin-5(8H)-yl)acetamide] here?
A: 2000 to 5000 nM

Q: Which EC50 does the source give for `CCc1c(N2CCN(C(=O)c3ncnc(C)c3O)[C@H]3CC[C@@H]32)c(=O)c2nc(N(C)C)cnc2n1CC(=O)Nc1ccc(C(F)(F)F)cc1Cl` (single isomer, unassigned) [I-40, N-(2-chloro-4-(trifluoromethyl)phenyl)-2-(2-(dimethylamino)-6-ethyl-7-(−5-(5-hydroxy-6-methylpyrimidine-4-carbonyl)-2,5-diazabicyclo[4.2.0]octan-2-yl)-8-oxopyrido[2,3-b]pyrazin-5(8H)-yl)acetamide] here?
A: < 500 nM

Same assay, conditions: Homo sapiens, HCT-116, 24 h, read-out: P21_EC50

Q: `[2H]C([2H])([2H])N(c1cnc2c(n1)c(=O)c(N1CCN(C(=O)c3ncnc(C)c3O)[C@H]3CC[C@@H]31)c(CC)n2CC(=O)Nc1ccc(C(F)(F)F)cc1Cl)C([2H])([2H])[2H]` [I-101, 2-(2-(bis(methyl-d3)amino)-6-ethyl-7-((1S,6S)-5-(5-hydroxy-6-methylpyrimidine-4-carbonyl)-2,5-diazabicyclo[4.2.0]octan-2-yl)-8-oxopyrido[2,3-b]pyrazin-5(8H)-yl)-N-(2-chloro-4-(trifluoromethyl)phenyl)acetamide] was tested. Which EC50 did it give?
A: < 500 nM

Molecular target: WRN (BV08), human Werner helicase (Uniprot Q14191, amino acids 517-1235 with L1074F point mutation) (Homo sapiens (Human), UniProt Q14191, L1074F)
Experiment: WRN (BV08) ADP-Glo assay
Type: biochemical
Conditions: class symbols A-E, read-out: ADP-Glo_hWRN_IC50
Protocol: Bovine skin gelatin (BSG), dimethyl sulfoxide (DMSO), Pluronic F-127 and tris(2-carboxyethyl)phosphine hydrochloride solution (TCEP) were purchased from Sigma-Aldrich (St. Louis, MO) at the highest level of purity possible. […] DNA strands were annealed by heating to 95° C. for 5 minutes followed by slow cooling to room temperature. Compounds in 100% DMSO (0.1 μl) were spotted into a 384-well white polystyrene Optiplate-384 (Perkin Elmer; Waltham, MA) assay plate using a LabCyte Echo 550 (Agilent; Santa Clara, CA). DMSO (0.1 μl) was added to columns 12, rows A-H and column 24, rows I-P for the maximum signal control. […] Compounds/DMSO were preincubated for 15 minutes at 25° C. with 5 μl 2×WRN (BV08), prepared as described below, in assay buffer containing 20 mM Bicine (pH=7.5), 1 mM MgCl2, 10 mM KCl, 0.1% Pluronic F-127, 0.005% BSG, 1 mM TCEP. The reaction was initiated by the addition of 5 μl 2× substrate mixture in assay buffer and incubated for 60 minutes at 25° C. The final concentrations of the assay components were 0.15 nM WRN, 5 μM ATP, and 0.1 nM DNA duplex. The final DMSO concentration was 1% and the reference compound concentration (NSC-617145) used for the minimal signal control was 20 μM. The reaction was stopped by the addition of the ADP-Glo Kit components (Promega; Madison, WI) as directed and the relative luminescence units (RLU) were read on an Envision 2104 (Perkin Elmer; Waltham, MA). % inhibition calculation:
[formula] • Where RLU=relative luminescence units, sample=signal in sample well, and MIN and MAX are the respective minimum and maximum signal controls.
[formula] • Where top and bottom are normally allowed to float but may be fixed at 100 or 0 respectively in a 3-parameter fit. Y is the % inhibition and X is the compound concentration.
Molecular Biology and virus production. […] The baculovirus from the expression plasmid WRN—BV08 was generated from transfection and amplification following the manufacturer's instructions.
Sf9 cells grown in SF900II media were infected with 1:200 WRN—BV08 P2 virus and incubated for protein expression for 72 h at 27° C. The WRN protein was purified using the following protocol. The cell pellets were thawed and resuspended in buffer A (50 mM Tris, pH 7.5, 500 mM NaCl, 1 mM TCEP, 10% Glycerol) supplemented with 0.5% CHAPS, 1 mM PMSF, 1 μg/ml Leupeptin, 1 μg/ml Pepstatin, and the Pierce Universal Nuclease and cocktail tablet. Cleared lysates were loaded onto a Ni Sepharose™ excel column and washed with buffer A and bound protein was eluted with buffer A supplemented with 300 mM imidazole. The eluted protein was dialyzed against buffer A and digested by His-tagged TEV (1:5 ratio) overnight at 4° C. ZnCl2 was added into the sample at final 15 μM before loading onto a second Ni Sepharose™ excel column. Untagged WRN protein was eluted from the column with buffer A supplemented with 20 mM imidazole, dialyzed overnight into buffer B (50 mM Tris, pH 7.5, 1 mM TCEP, 10% Glycerol) supplemented with 150 mM NaCl and loaded onto a Heparin column. Proteins were eluted with a step gradient of buffer B supplemented with 150 mM, 200 mM, 300 mM and 500 mM NaCl. WRN containing fractions were pooled and concentrated prior to loading on to size exclusion chromatography using a HiLoad 16/600 Superdex™ 200 pg column (GE Healthcare) in buffer C (20 mM HTEPES, pH 7.5, 250 mM NaCl, 0.25 mM TCEP, […]).

Sequence of WRN (BV08), human Werner helicase (Uniprot Q14191, amino acids 517-1235 with L1074F point mutation) (Q14191 other isoform, or with tags, fused parts or gaps L1074F (already in the parent)): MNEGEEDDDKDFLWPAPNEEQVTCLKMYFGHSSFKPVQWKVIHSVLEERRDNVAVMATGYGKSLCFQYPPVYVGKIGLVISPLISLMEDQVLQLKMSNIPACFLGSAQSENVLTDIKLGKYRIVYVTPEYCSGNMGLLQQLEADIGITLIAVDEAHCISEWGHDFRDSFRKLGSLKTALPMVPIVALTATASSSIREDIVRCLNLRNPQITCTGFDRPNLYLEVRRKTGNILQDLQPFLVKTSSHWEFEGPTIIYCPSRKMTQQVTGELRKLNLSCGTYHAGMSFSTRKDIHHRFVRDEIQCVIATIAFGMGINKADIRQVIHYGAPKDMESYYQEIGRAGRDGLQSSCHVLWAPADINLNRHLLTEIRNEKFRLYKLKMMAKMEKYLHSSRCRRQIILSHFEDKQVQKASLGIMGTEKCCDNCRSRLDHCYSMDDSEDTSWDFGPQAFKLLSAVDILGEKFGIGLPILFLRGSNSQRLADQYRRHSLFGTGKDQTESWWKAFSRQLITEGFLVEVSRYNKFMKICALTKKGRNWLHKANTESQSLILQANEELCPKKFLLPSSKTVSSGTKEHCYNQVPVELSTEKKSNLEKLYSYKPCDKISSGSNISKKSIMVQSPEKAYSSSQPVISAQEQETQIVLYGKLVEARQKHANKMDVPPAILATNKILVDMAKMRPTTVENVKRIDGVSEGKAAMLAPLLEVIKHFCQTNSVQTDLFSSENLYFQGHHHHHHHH

Q: How did the IC50 turn out when `CCc1c(N2CCN(C(=O)c3ncnc(C)c3O)C[C@@H]2C)c(=O)c2nc(N3CC[C@@H]4C[C@@H]43)cnc2n1CC(=O)Nc1ccc(C(F)(F)F)cc1Cl` (single isomer, unassigned) [I-193] was run?
A: ≤ 5 nM

Q: For `CCc1c(N2CCN(C(=O)c3ncnc(C)c3O)[C@H](C)[C@@H]2C)c(=O)c2nc(N(C)C)cnc2n1CC(=O)Nc1ccc(C(F)(F)F)cc1Cl` (single isomer, unassigned) [I-198, N-(2-chloro-4-(trifluoromethyl)phenyl)-2-(2-(dimethylamino)-6-ethyl-7-(4-(5-hydroxy-6-methylpyrimidine-4-carbonyl)-2,3-dimethylpiperazin-1-yl)-8-oxopyrido[2,3-b]pyrazin-5(8H)-yl)acetamide], which IC50 is on record?
A: 5 to 50 nM

Q: For `CCc1c(N2C[C@H]3CC[C@@H]2CN3C(=O)c2ncnc(C)c2O)c(=O)c2nc(N(C)C)cnc2n1CC(=O)Nc1ccc(C(F)(F)F)cc1Cl` (single isomer, unassigned) [I-248, N-(2-chloro-4-(trifluoromethyl)phenyl)-2-(2-(dimethylamino)-6-ethyl-7-(5-(5-hydroxy-6-methylpyrimidine-4-carbonyl)-2,5-diazabicyclo[2.2.2]octan-2-yl)-8-oxopyrido[2,3-b]pyrazin-5(8H)-yl)acetamide], which IC50 is on record?
A: 50 to 100 nM

Q: `CCc1c(N2CCN(C(=O)c3ncnc(C)c3O)C3COCC32)c(=O)c2nc(N(C)C)cnc2n1CC(=O)Nc1ccc(C(F)(F)F)cc1Cl` (single isomer, unassigned) [I-295, N-(2-chloro-4-(trifluoromethyl)phenyl)-2-(2-(dimethylamino)-6-ethyl-7-(4-(5-hydroxy-6-methylpyrimidine-4-carbonyl)hexahydrofuro[3,4-b]pyrazin-1(2H)-yl)-8-oxopyrido[2,3-b]pyrazin-5(8H)-yl)acetamide] was tested. Which IC50 did it give?
A: 5 to 50 nM

Q: Which IC50 does the source give for `CCc1c(N2CCN(C(=O)c3ncnc(C)c3O)[C@@H](C)C2)c(=O)c2nc(N(C)C)cnc2n1CC(=O)Nc1ccc(C(F)(F)F)cc1Cl` [I-173, N-[2-chloro-4-(trifluoromethyl)phenyl]-2-[2-(dimethylamino)-6-ethyl-7-[(3S)-4-(5-hydroxy-6-methylpyrimidine-4-carbonyl)-3-methylpiperazin-1-yl]-8-oxo-5H,8H-pyrido[2,3-b]pyrazin-5-yl]acetamide] here?
A: 5 to 50 nM

Q: `C#C[C@H]1CN(C(=O)c2ncnc(C)c2O)CCN1c1c(CC)n(CC(=O)Nc2ccc(C(F)(F)F)cc2Cl)c2ncc(N(C)C)nc2c1=O` [I-260, N-[2-chloro-4-(trifluoromethyl)phenyl]-2-[2-(dimethylamino)-6-ethyl-7-[(2S)-2-ethynyl-4-(5-hydroxy-6-methylpyrimidine-4-carbonyl)piperazin-1-yl]-8-oxo-5H,8H-pyrido[2,3-b]pyrazin-5-yl]acetamide] was tested. Which IC50 did it give?
A: 5 to 50 nM
